Measurements reported in US11058635B1, “Oral administration of 5-FU in a gelling nanosuspension for targeted delivery to treat colorectal cancers” (King Abdulaziz University, priority 2020, dated 2021).

Test: In vitro drug release, pH-profile dialysis bag method
Type: physicochemical
Conditions: for overall pH-profile percentage release more than NAH-CRG-FU by: difference over 8 hrs
Text: The ultimate goals were to develop a formula with in-soluble gel forming ability in the gastric media with good coherence, to form a sedimented gel with a density >1 in the stomach, to increase the gastric emptying rate and to avoid the gastric adverse effects and metabolism of FU by keeping a minimal gastric release or coating it. On other hand, the formula needed to dissolve and release the drug and gel in the simulated intestinal media, especially the colonic area. The main target was to design a system that was able to inhibit release of the drug in the stomach (i.e., release at a lower rate than the release rate in the intestinal-colonic area). Formulation was prepared according to Table 2 and the pattern of 5-FU release in the pH-profile differed from that of free 5-FU. After preparation of different formulations with manipulation of NA amounts (18, 36 and 72 mg/mL) and CRG types (CRGk and CRGL), the drug release optimization confirmed that the optimum formulation with respect to FU release curve and parameters was the NAH-CRG-FU shown in Table 2 and FIG. 6. […] The comparisons between the release patterns of the NAH-CRG-FU formulation and free drug were done using the simulated gastric release percentage (%)-first 2 hrs, simulated intestinal-colonic release percentage-subsequent 6 hrs (summation of the proximal, distal intestine and colon percentage simulated release patterns), mean dissolution time (MDT) of simulated pre-intestinal region (gastric) and simulated intestine-colonic area. Furthermore, mean dissolution times for 1st 2 hrs of pre-intestinal (Pre-intestinal MDT) and from the 2nd to 8th hr of the release profile (Intestinal-colonic MDT) were obtained by the following equation (Bani-Jaber and Abdullah 2020, Costa and Lobo 2001).
[formula] wherein (i) expressed the release sample numbers, (n) referred to the number of release times, (t) was the mid-point time in the interval (ti-1-ti), (ΔM) was the released amount of drug in the interval (ti-1-ti). The MDT larger values could indicate a slower drug release rate. The predicted rate of release equates to the rate of dissolution, and this rate has a direct effect on the number of daily oral doses and any adverse effects associated therewith.
5-FU was prepared in a formulation of the NAH-CGR-FU gelling nanosuspension, as described in the previous Examples. Data from Table 2 was used to prepare a nanosuspension volume of 20 mL. The dose was loaded into a dialysis bag having a cut-off of 12000-14000 Dalton (Spectra/Por® 4-Dialysis membrane, USA). The dialysis bag was placed into a beaker containing 300 mL of release media. The bags were exposed to 0.1N HCl to simulate gastric media having a pH 1.2 for 2 hr, followed by simulated proximal intestine media, which was a phosphate buffer with pH 6.5 for 2 hr. This was followed by media simulating the media of the distal area of the small intestine, which was a phosphate buffer at a pH 6.8 for 2 hr. Finally, the dialysis bags were transferred to a phosphate buffer media having a pH 8 to simulate the media of a descending colon for 2 hrs. The sequential exposure in the different pH media was used to construct a pH dissolution profile. The temperature was constantly controlled at 37±0.5° C. in a water bath shaker of 75 rpm speed. To maintain sink conditions, the dissolution media underwent total replacement with a fresh medium every hour. After drug release optimization of the NA amount and CRG type was determined, the optimum formulation in-soluble gel that was formed in the acidic media was evaluated for the onset of formation and the extent of sedimentation.

## O=c1[nH]cc(F)c(=O)[nH]1 [Free 5-FU, 5-fluorouracil]
0.1N HCl pH 1.2, first 2 hr, 37 C, 75 rpm
  Gastric % Release: 56.60 ± 0.0051%
Difference free 5-FU minus NAH-CRG-FU, first 2 hrs
  higher gastric percentage release than NAH-CRG-FU by: 31.55%
Difference free 5-FU minus NAH-CRG-FU, subsequent 6 hrs
  higher intestinal-colonic percentage release than NAH-CRG-FU by: 30.68%
Listed as 5-FU alone
  overall pH-profile percentage release more than NAH-CRG-FU by: 62.23%
Listed as 5-FU free
  overall pH-profile percentage release more than NAH-CRG-FU by: 62.2%
Mean dissolution time, 1st 2 hrs, pH 1.2, n = 3 ± SD
  Pre-Intestinal MDT: 0.23 ± 0.0011 h
Mean dissolution time, 2nd to 8th hr, pH 6.5, 6.8, 8, n = 3 ± SD
  Intestinal-Colonic MDT: 1.75 ± 0.0051 h
pH-profile 1.2-8, 8 hrs
  released after 8 hrs of the pH-profile study: 95.97%
Phosphate buffer pH 6.5, 2 hr
  Proximal Intestine % Release: 23.04 ± 0.0022%
Phosphate buffer pH 6.8, 2 hr
  Distal Intestine % Release: 9.08 ± 0.0019%
Phosphate buffer pH 8, 2 hr
  Colon % Release: 7.26 ± 0.0014%
Subsequent 6 hrs, summation of proximal, distal intestine and colon
  Intestinal-Colonic % Release: 39.37 ± 0.0071%
